Results taken from patent publication US20110263557A1, “COMPOUNDS AND COMPOSITIONS AS MODULATORS OF GPR119 ACTIVITY” (IRM LLC, priority 2008, published 2011).

What follows are molecules tested against T1, human GPR119 (Homo sapiens, UniProt Q8TDV5) (assay: Cyclic AMP assay in stable cell line (Flp-In-CHO-hGPR119, HTRF)). Settings: Flp-In-CHO-hGPR119 cells, intracellular cAMP by HTRF, 1 mM IBMX, 37° C. for 30 minutes; read-out: CHO-GPR119-HTRF (3158).
T1 construct: expressed in transfected cells
T1 sequence (Q8TDV5 1-335): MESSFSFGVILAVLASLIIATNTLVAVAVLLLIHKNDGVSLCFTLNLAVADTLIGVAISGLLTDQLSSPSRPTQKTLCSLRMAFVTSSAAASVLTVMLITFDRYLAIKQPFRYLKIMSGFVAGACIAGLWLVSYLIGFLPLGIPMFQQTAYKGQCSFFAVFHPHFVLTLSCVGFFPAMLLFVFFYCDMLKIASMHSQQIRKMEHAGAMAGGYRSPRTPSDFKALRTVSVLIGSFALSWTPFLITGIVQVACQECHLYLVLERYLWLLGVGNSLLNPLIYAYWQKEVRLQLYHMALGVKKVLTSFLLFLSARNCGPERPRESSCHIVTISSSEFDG
Type: cell-based
Description: Flp-In-CHO cells (Invitrogen, Cat.#R758-07) are maintained in Ham's F12 medium supplemented with 10% fetal bovine serum, 1% antibiotic mixture and 2 mM L-glutamine. The cells are transfected with a DNA mixture containing human GPR119 in pcDNA5/FRT vector and the pOG44 vector (1:9) using Fugene6 (Roche), according to the manufacturer's instruction. After 48 hours, the medium is changed to medium supplemented with 400 μg/ml hygromycin B to initiate the selection of stably transfected cells.
To test the activity of compounds of the invention, Flp-In-CHO-hGPR119 cells are harvested and resuspended in DMEM plus 3% lipid-depleted fetal bovine serum. Forth μl of cells are plated in 384 well plates at a density of 15,000 cells/well. IBMX (3-isobutyl-1-methyl-xanthine) is added to the cells to a final concentration of 1 mM, followed by the addition of 500 nl of the compound to be tested. The cells are incubated at 37° C. for 30 minutes. Equal volume (20 μl) of the HTRF reagents, anti-cAMP-Cryptate and cAMP-XL665, are added to the cells. The plates are incubated at room temperature for 1 hour and read on a HTRF reader according to the manufacturer's instruction.
Compounds of Formula I, in free form or in pharmaceutically acceptable salt form, produced a concentration-dependent increase in intracellular cAMP level. […] For example, the following tables show some EC50 data for a representative sample of compounds of the invention: […]

Compared with `CCc1cnc(N2CCC(Oc3ccc(CN4CCN(S(C)(=O)=O)CC4)cc3F)CC2)nc1` [Example A6, 5-ethyl-2-(4-(2-fluoro-4-((4-(methylsulfonyl)piperazin-1-yl)methyl)phenoxy)piperidin-1-yl)pyrimidine], `CCc1cnc(N2CCC(Oc3ccc(CN4CCN(S(C)(=O)=O)CC4)cc3Br)CC2)nc1` [Example A8, 2-(4-(2-bromo-4-((4-(methylsulfonyl)piperazin-1-yl)methyl)phenoxy)piperidin-1-yl)-5-ethylpyrimidine] is 4-fold lower in EC50: 20 nM for the first, 5 nM for the second. The second is the more potent here.

Compared with `CCc1cnc(N2CCC(Oc3ccc(CN4CC(N(C)S(C)(=O)=O)C4)cc3Cl)CC2)nc1` [Example E15, N-(1-(3-Chloro-4-(1-(5-ethylpyrimidin-2-yl)piperidin-4-yloxy)benzyl)azetidin-3-yl)-N-methylmethanesulfonamide], `CCc1cnc(N2CCC(Oc3ccc(CN4CCN(S(C)(=O)=O)CC4=O)cc3Cl)CC2)nc1` [Example E4, 1-(3-Chloro-4-(1-(5-ethylpyrimidin-2-yl)piperidin-4-yloxy)benzyl)-4-(methylsulfonyl)piperazin-2-one] is 7.1-fold higher in EC50: 114 nM for the first, 812 nM for the second.

First: CC1(OC(=O)N2CCC(Oc3ccc(CN4CCN(S(C)(=O)=O)CC4)cc3)CC2)CC1 [Example B2, 1-Methylcyclopropyl 4-(4-((4-(methylsulfonyl)piperazin-1-yl)methyl)phenoxy)piperidine-1-carboxylate]
Second: CC1(OC(=O)N2CCC(Oc3ccc(CN4CCN(S(C)(=O)=O)CC4)cc3Cl)CC2)CC1 [Example B3, 1-Methylcyclopropyl 4-(2-chloro-4-((4-(methylsulfonyl)piperazin-1-yl)methyl)phenoxy)piperidine-1-carboxylate]
The EC50 of the first is 5.8-fold higher: 127 nM for the first, 22 nM for the second. The second is the more potent here.

Compared with `CN(C)C(=O)c1cnc(N2CCC(Oc3ccc(CN4CCN(S(C)(=O)=O)CC4)cc3Cl)CC2)nc1` [Example B13, 2-(4-(2-chloro-4-((4-(methylsulfonyl)piperazin-1-yl)methyl)phenoxy)piperidin-1-yl)-N,N-dimethylpyrimidine-5-carboxamide], `Cn1nnc(-c2cnc(N3CCC(Oc4ccc(CN5CCN(S(C)(=O)=O)CC5)cc4Cl)CC3)nc2)n1` [Example B17, 2-(4-(2-Chloro-4-((4-(methylsulfonyl)piperazin-1-yl)methyl)phenoxy)piperidin-1-yl)-5-(2-methyl-2H-tetrazol-5-yl)pyrimidine] is 52-fold lower in EC50: 465 nM for the first, 9 nM for the second. The second is the more potent here.

Compared with `CCc1cnc(N2CCC(Oc3ccc(CN4CCN(S(C)(=O)=O)CC4)cc3)CC2)nc1` [Example A1], `CCc1cnc(N2CCC(Oc3ccc(CN4CCN(S(C)(=O)=O)CC4)nc3)CC2)nc1` [Example A13, 5-ethyl-2-(4-(6-((4-(methylsulfonyl)piperazin-1-yl)methyl)pyridin-3-yloxy)piperidin-1-yl)pyrimidine] is 15-fold higher in EC50: 56 nM for the first, 867 nM for the second.

Going from `CCc1cnc(N2CCC(Oc3ccc(CN4CCN(S(C)(=O)=O)CC4)cc3-c3ccn[nH]3)CC2)nc1` [Example C5, 5-ethyl-2-(4-(4-((4-(methylsulfonyl)piperazin-1-yl)methyl)-2-(1H-pyrazol-5-yl)phenoxy)piperidin-1-yl)pyrimidine] to `CCc1cnc(N2CCC(Oc3ccc(CN4CCN(S(C)(=O)=O)CC4)cc3C(=O)OC)CC2)nc1` [Example A14, methyl 2-(1-(5-ethylpyrimidin-2-yl)piperidin-4-yloxy)-5-((4-(methylsulfonyl)piperazin-1-yl)methyl)benzoate], the EC50 rises from 44 nM to 313 nM (7.1-fold). The first is the more potent here.

`CCc1cnc(N2CCC(Oc3ccc(CN4CCN(S(C)(=O)=O)CC4)cc3NCCOC)CC2)nc1` [Example C9, 2-(1-(5-Ethylpyrimidin-2-yl)piperidin-4-yloxy)-N-(2-methoxyethyl)-5-((4-(methylsulfonyl)piperazin-1-yl)methyl)aniline] and `CCc1cnc(N2CCC(Oc3ccc(CN4CCN(S(C)(=O)=O)CC4)cc3CCCOC)CC2)nc1` [Example C2] are within 1.5-fold of each other in EC50: 136 nM for the first, 187 nM for the second.

Compared with `CCc1cnc(N2CCC(Oc3ccc(CN4CCN(S(C)(=O)=O)CC4)c(C)c3)CC2)nc1` [Example A2, 5-ethyl-2-(4-(3-methyl-4-((4-(methylsulfonyl)piperazin-1-yl)methyl)phenoxy)piperidin-1-yl)pyrimidine], `CCc1cnc(N2CCC(Oc3ccc(CN4CCN(S(=O)(=O)CCCO)CC4)cc3Cl)CC2)nc1` [Example D1, 3-(4-(3-Chloro-4-(1-(5-ethylpyrimidin-2-yl)piperidin-4-yloxy)benzyl)piperazin-1-ylsulfonyl)propan-1-ol] is 25-fold lower in EC50: 203 nM for the first, 8 nM for the second.

Compared with `CS(=O)(=O)N1CCN(Cc2ccc(OC3CCN(c4ccc(C(F)(F)F)cn4)CC3)cc2)CC1` [Example B6, 1-(methylsulfonyl)-4-(4-(1-(5-(trifluoromethyl)pyridin-2-yl)piperidin-4-yloxy)benzyl)piperazine], `CC(C)c1noc(N2CCC(Oc3ccc(CN4CCN(S(C)(=O)=O)CC4)cc3Cl)CC2)n1` [Example B11, 5-(4-(2-chloro-4-((4-(methylsulfonyl)piperazin-1-yl)methyl)phenoxy)piperidin-1-yl)-3-isopropyl-1,2,4-oxadiazole] is 17-fold lower in EC50: 220 nM for the first, 13 nM for the second. The second is the more potent here.

Going from `CCc1cnc(N2CCC(Oc3ccc(CC4CCN(S(C)(=O)=O)CC4)cc3Cl)CC2)nc1` [Example E2, 2-(4-(2-Chloro-4-((1-(methylsulfonyl)piperidin-4-yl)methyl)phenoxy)piperidin-1-yl)-5-ethylpyrimidine] to `CCc1cnc(N2CCC(Oc3ccc(CN4CCC(c5nnn(C)n5)CC4)cc3Cl)CC2)nc1` [Example E12, 2-(4-(2-chloro-4-((4-(2-methyl-2H-tetrazol-5-yl)piperidin-1-yl)methyl)phenoxy)piperidin-1-yl)-5-ethylpyrimidine], the EC50 rises from 3 nM to 2680 nM (890-fold).
